# The supplement of paper PMC9663587
# How the values were obtained:
# Experiment in all cases: increase in dead-cell fraction, 72 h; higher = more death;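 also: breast cancer cell lines in 384-well plates, stained with Hoechst plus LIVE/DEAD far red dye and imaged, cells above an LDR intensity threshold counted dead, Hoechst-negative corpses included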
# [1] = compound: Cc1cc(Nc2ncc(Cl)c(Nc3ccccc3S(=O)(=O)C(C)C)n2)c(OC(C)C)cc1C1CCNCC1 [Ceritinib/LDK378]
# [2] = compound: C1=CC(=CC(=C1)N2C(=O)C=CC3=CN=C4C=CC(=CC4=C32)C5=CN=C(C=C5)N)C(F)(F)F [Torin2]
# [3] = compound: O=C1NC(=O)[C@@H](c2cn3c4c(cccc24)CCC3)[C@@H]1c1c[nH]c2ccccc12 [Tivantinib/ARQ197]
# [4] = compound: CN1CCN(CCOc2cc(OC3CCOCC3)c3c(Nc4c(Cl)ccc5c4OCO5)ncnc3c2)CC1 [Saracatinib/AZD0530]
# [5] = compound: CN1CCN(CC1)C2=CC(=C(C=C2)NC3=NC=C4C(=N3)N(C5=CC=CC=C5C(=O)N4CC(F)(F)F)C)OC [FMF-03-146-1]
# [6] = compound: CC(=O)O[C@H]1C(=O)[C@@]2(C)[C@H]([C@H](OC(=O)c3ccccc3)[C@]3(O)C[C@H](OC(=O)[C@H](O)[C@@H](NC(=O)c4ccccc4)c4ccccc4)C(C)=C1C3(C)C)[C@]1(OC(C)=O)CO[C@@H]1C[C@@H]2O [Paclitaxel]
# [7] = compound: Nc1cc(C(F)(F)F)c(-c2cc(N3CCOCC3)nc(N3CCOCC3)n2)cn1 [Buparlisib/NVP-BKM120]
# [8] = compound: COc1cccc(OCCCN)c1-c1cc(Nc2cnc(C#N)cn2)n[nH]1
# [9] = compound: CC1(CCN(CC1)C2=CN=C(C(=N2)N)C3=C(C(=CC=C3)Cl)Cl)N [SHP099]
# [10] = compound: NC(=O)Nc1cc(-c2cccc(F)c2)sc1C(=O)N[C@H]1CCCNC1 [AZD7762]
# [11] = compound: CC(C)n1nc(-c2ccc3oc(N)nc3c2)c2c(N)ncnc21 [INK128/MLN0128]
# [12] = compound: CN(C)C/C=C/C(=O)Nc1ccc(O[C@@H]2CCC[C@@H](Nc3ncc(Cl)c(-c4c[nH]c5ccccc45)n3)C2)cc1 [BSJ-01-175]
cell line,measurement,setting,value
AU565,increase in dead-cell fraction,[1]; 0.001 µM,-0.0009
same,increase in dead-cell fraction,[1]; 0.003162 µM,0.0007
same,increase in dead-cell fraction,[1]; 0.01 µM,0.001
same,increase in dead-cell fraction,[1]; 0.03162 µM,-0.0017
same,increase in dead-cell fraction,[1]; 0.1 µM,-0.004
same,increase in dead-cell fraction,[1]; 0.3162 µM,0.0015
same,increase in dead-cell fraction,[1]; 1 µM,0.0037
same,increase in dead-cell fraction,[1]; 3.162 µM,0.0216
same,increase in dead-cell fraction,[2]; 0.0001 µM,0.0019
same,increase in dead-cell fraction,[2]; 0.0003162 µM,0.0033
same,increase in dead-cell fraction,[2]; 0.001 µM,0.0025
same,increase in dead-cell fraction,[2]; 0.003162 µM,0.0127
same,increase in dead-cell fraction,[2]; 0.01 µM,0.032
same,increase in dead-cell fraction,[2]; 0.03162 µM,0.0466
same,increase in dead-cell fraction,[2]; 0.1 µM,0.0874
same,increase in dead-cell fraction,[2]; 0.3162 µM,0.0982
same,increase in dead-cell fraction,[2]; 1 µM,0.121
same,increase in dead-cell fraction,[3]; 0.001 µM,-0.0007
same,increase in dead-cell fraction,[3]; 0.003162 µM,-0.0033
same,increase in dead-cell fraction,[3]; 0.01 µM,-0.0012
same,increase in dead-cell fraction,[3]; 0.03162 µM,-0.0029
same,increase in dead-cell fraction,[3]; 0.1 µM,0.0087
same,increase in dead-cell fraction,[3]; 0.3162 µM,0.0601
same,increase in dead-cell fraction,[3]; 1 µM,0.263
same,increase in dead-cell fraction,[3]; 3.162 µM,0.306
same,increase in dead-cell fraction,[3]; 10 µM,0.3
same,increase in dead-cell fraction,[4]; 0.001 µM,-0.003
same,increase in dead-cell fraction,[4]; 0.003162 µM,0.0003
same,increase in dead-cell fraction,[4]; 0.01 µM,0.0038
same,increase in dead-cell fraction,[4]; 0.03162 µM,-0.0046
same,increase in dead-cell fraction,[4]; 0.1 µM,-0.0038
same,increase in dead-cell fraction,[4]; 0.3162 µM,-0.0029
same,increase in dead-cell fraction,[4]; 1 µM,0.0012
same,increase in dead-cell fraction,[4]; 3.162 µM,0.0017
same,increase in dead-cell fraction,[4]; 10 µM,0.0305
same,increase in dead-cell fraction,[5]; 0.001 µM,-0.0004
same,increase in dead-cell fraction,[5]; 0.003162 µM,-0.0059
same,increase in dead-cell fraction,[5]; 0.01 µM,-0.0077
same,increase in dead-cell fraction,[5]; 0.03162 µM,-0.0019
same,increase in dead-cell fraction,[5]; 0.1 µM,-0.007
same,increase in dead-cell fraction,[5]; 0.3162 µM,0.0094
same,increase in dead-cell fraction,[5]; 1 µM,0.0124
same,increase in dead-cell fraction,[5]; 3.162 µM,-0.0094
same,increase in dead-cell fraction,[5]; 10 µM,0.0136
same,increase in dead-cell fraction,[6]; 0.0001 µM,0.0067
same,increase in dead-cell fraction,[6]; 0.0003162 µM,0.0015
same,increase in dead-cell fraction,[6]; 0.001 µM,0.0164
same,increase in dead-cell fraction,[6]; 0.003162 µM,0.226
same,increase in dead-cell fraction,[6]; 0.01 µM,0.312
same,increase in dead-cell fraction,[6]; 0.03162 µM,0.333
same,increase in dead-cell fraction,[6]; 0.1 µM,0.324
same,increase in dead-cell fraction,[6]; 0.3162 µM,0.278
same,increase in dead-cell fraction,[6]; 1 µM,0.303
same,increase in dead-cell fraction,[7]; 0.001 µM,-0.0006
same,increase in dead-cell fraction,[7]; 0.003162 µM,0.0058
same,increase in dead-cell fraction,[7]; 0.01 µM,0.0024
same,increase in dead-cell fraction,[7]; 0.03162 µM,0.0055
same,increase in dead-cell fraction,[7]; 0.1 µM,0.0187
same,increase in dead-cell fraction,[7]; 0.3162 µM,0.043
same,increase in dead-cell fraction,[7]; 1 µM,0.189
same,increase in dead-cell fraction,[7]; 3.162 µM,0.273
same,increase in dead-cell fraction,[7]; 10 µM,0.227
same,increase in dead-cell fraction,[8]; 10 pM,-0.002
same,increase in dead-cell fraction,[8]; 31.6 pM,-0.0013
same,increase in dead-cell fraction,[8]; 0.0001 µM,-0.0035
same,increase in dead-cell fraction,[8]; 0.0003162 µM,-0.0022
same,increase in dead-cell fraction,[8]; 0.001 µM,0.139
same,increase in dead-cell fraction,[8]; 0.003162 µM,0.168
same,increase in dead-cell fraction,[8]; 0.01 µM,0.194
same,increase in dead-cell fraction,[8]; 0.03162 µM,0.187
same,increase in dead-cell fraction,[8]; 0.1 µM,0.211
same,increase in dead-cell fraction,[9]; 0.001 µM,-0.0127
same,increase in dead-cell fraction,[9]; 0.003162 µM,-0.0116
same,increase in dead-cell fraction,[9]; 0.01 µM,-0.0073
same,increase in dead-cell fraction,[9]; 0.03162 µM,-0.0133
same,increase in dead-cell fraction,[9]; 0.1 µM,-0.0124
same,increase in dead-cell fraction,[9]; 0.3162 µM,-0.0047
same,increase in dead-cell fraction,[9]; 1 µM,-0.0147
same,increase in dead-cell fraction,[9]; 3.162 µM,0.0036
same,increase in dead-cell fraction,[9]; 10 µM,-0.0053
same,increase in dead-cell fraction,[10]; 0.001 µM,0.0024
same,increase in dead-cell fraction,[10]; 0.003162 µM,-0.0005
same,increase in dead-cell fraction,[10]; 0.01 µM,-0.0036
same,increase in dead-cell fraction,[10]; 0.03162 µM,-0.0044
same,increase in dead-cell fraction,[10]; 0.1 µM,-0.0002
same,increase in dead-cell fraction,[10]; 0.3162 µM,0.0011
same,increase in dead-cell fraction,[10]; 1 µM,0.0228
same,increase in dead-cell fraction,[10]; 3.162 µM,0.106
same,increase in dead-cell fraction,[10]; 10 µM,0.232
same,increase in dead-cell fraction,[11]; 0.0003162 µM,0.0039
same,increase in dead-cell fraction,[11]; 0.001 µM,0.0034
same,increase in dead-cell fraction,[11]; 0.003162 µM,0.0155
same,increase in dead-cell fraction,[11]; 0.01 µM,0.0233
same,increase in dead-cell fraction,[11]; 0.03162 µM,0.0367
same,increase in dead-cell fraction,[11]; 0.1 µM,0.0543
same,increase in dead-cell fraction,[11]; 0.3162 µM,0.0671
same,increase in dead-cell fraction,[11]; 1 µM,0.084
same,increase in dead-cell fraction,[11]; 3.162 µM,0.244
same,increase in dead-cell fraction,[12]; 0.001 µM,-0.006
same,increase in dead-cell fraction,[12]; 0.003162 µM,0.0214
same,increase in dead-cell fraction,[12]; 0.01 µM,0.121
same,increase in dead-cell fraction,[12]; 0.03162 µM,0.26
same,increase in dead-cell fraction,[12]; 0.1 µM,0.296
same,increase in dead-cell fraction,[12]; 0.3162 µM,0.35
same,increase in dead-cell fraction,[12]; 1 µM,0.443
same,increase in dead-cell fraction,[12]; 3.162 µM,0.432
same,increase in dead-cell fraction,[12]; 10 µM,0.68
